Data reported in patent publication US6100283A, “Benzimidazole compounds” (Newcastle University Ventures Limited, priority 1995, dated 2000).
“And” between values parts separate entries of the source, which are not always exact repeats. Equal entries are not always repeated. Where two headings read alike, the source gives them in different places. Each block holds one compound with its values, some of them ahead of it.

Assays:
PARP = biological target: T1, PARP (Mus musculus, UniProt P11103); assay: PARP enzyme inhibition assay ([32P]-NAD+ incorporation into TCA-precipitated poly(ADP-ribose), oligonucleotide-activated, permeabilised L1210 cells); format: biochemical, murine (L1210 leukaemia cells); settings: for IC50: permeabilised L1210 cells, 26° C., 5 minutes
T1 construct: endogenous in cells; host or cells: L1210 murine leukaemia cells, permeabilised by hypotonic buffer and cold shock
T1 sequence (P11103 whole entry): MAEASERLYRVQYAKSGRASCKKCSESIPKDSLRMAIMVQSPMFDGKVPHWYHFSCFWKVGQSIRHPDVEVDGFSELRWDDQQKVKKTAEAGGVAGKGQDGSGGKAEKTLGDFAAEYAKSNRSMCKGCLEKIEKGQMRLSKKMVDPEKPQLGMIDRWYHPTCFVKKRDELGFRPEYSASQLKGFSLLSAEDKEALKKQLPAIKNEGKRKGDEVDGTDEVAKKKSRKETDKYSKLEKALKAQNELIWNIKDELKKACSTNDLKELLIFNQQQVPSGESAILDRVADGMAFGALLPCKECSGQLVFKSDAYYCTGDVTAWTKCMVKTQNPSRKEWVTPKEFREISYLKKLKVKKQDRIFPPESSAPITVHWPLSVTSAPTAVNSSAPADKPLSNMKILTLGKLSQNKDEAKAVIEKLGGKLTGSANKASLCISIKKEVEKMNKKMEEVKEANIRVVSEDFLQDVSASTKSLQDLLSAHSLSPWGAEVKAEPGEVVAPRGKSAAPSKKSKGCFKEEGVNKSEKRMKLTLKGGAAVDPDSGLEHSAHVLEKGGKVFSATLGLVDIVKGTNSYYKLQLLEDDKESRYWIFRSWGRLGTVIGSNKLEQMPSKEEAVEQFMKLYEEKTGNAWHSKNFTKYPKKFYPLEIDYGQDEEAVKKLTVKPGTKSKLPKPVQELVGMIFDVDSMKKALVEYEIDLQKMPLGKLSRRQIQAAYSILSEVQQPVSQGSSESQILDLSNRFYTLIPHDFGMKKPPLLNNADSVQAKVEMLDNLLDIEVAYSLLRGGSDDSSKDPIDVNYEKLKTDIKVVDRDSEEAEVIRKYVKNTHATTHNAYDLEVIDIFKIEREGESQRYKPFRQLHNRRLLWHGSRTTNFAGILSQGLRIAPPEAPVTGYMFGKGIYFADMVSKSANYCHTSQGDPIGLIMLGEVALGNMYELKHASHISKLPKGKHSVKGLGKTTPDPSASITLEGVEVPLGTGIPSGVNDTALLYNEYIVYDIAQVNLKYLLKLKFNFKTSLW
Excerpt: The poly(ADP-ribose) which is then synthesised by the enzyme can be precipitated by tri-chloracetic acid (TCA) and the amount of radio-labelled ^32 p incorporated therein measured, e.g. using a scintillation counter, to give a measure of the activity of the PARP under the particular conditions of the experiment. By repeating the experiment following the same procedure, and under the same conditions, in the presence of each compound to be tested the reduction in enzyme activity, representative of the inhibitory effect of the test compound, can then be ascertained from the reduction, if any, of the amount of [^32 p] measured in the TCA precipitated poly(ADP-ribose).
Thus, with a range of different compounds a set of comparative values for inhibitory activity can be obtained.
In practice, L1210 murine leukaemia cells have been used as a source of the PARP enzyme after being rendered permeable to exogenous [^32 P]NAD by exposure to hypotonic buffer and cold shock. […] This oligonucleotide sequence snaps back on itself to form a double-stranded molecule with a single blunt end and provides an effective substrate for activation of PARP.
The experimental protocol adopted, in which a synthetic oligonucleotide as mentioned above is introduced as a specific activator of PARP, discriminates between PARP and other mono-ADP-ribosyltransferases in the cells.
The oligonucleotide having the palindromic sequence […], synthesised by conventional means, was vacuum dried and stored as pellets in a freezer. Before use, it was made up to 200 μg/ml in 10 mM Tris/HCl, pH 7.8, with each pellet being dissolved completely in […] of buffer. The solution was then heated to 60° C. in a water bath for 15 minutes, and allowed to cool slowly to ensure correct reannealing. After adding 9.5 ml of buffer, the concentration was checked by measuring the optical density of a diluted sample at 260 nm. The main solution was then diluted to a concentration of 200 μg/ml and stored in 500 μl aliquots in a freezer, ready for use.
The L1210 cells used as the source of the PARP enzyme were maintained as a suspension culture in RPMI medium+10% foetal bovine serum+glutamine and antibiotics (penicillin and streptomycin). HEPES and sodium bicarbonate were also added, and the cells were seeded in 100 ml-200 ml of medium such that there would be a concentration of approximately 8×10^5 /ml at the time of carrying out an assay.
The solubility of the compound was then checked by adding a quantity of the DMSO solution to a quantity of the isotonic buffer, in the required final proportions that were to be used in carrying out the assay, and after an interval the solution was examined under a microscope for any signs of crystals forming.
A desired quantity of the cells, ascertained by counting with a haemocytometer, was then centrifuged (1500 rpm in a "Europa" model 24M centrifuge for 5 minutes), the supernatant removed, and the pellets obtained were resuspended in 20 ml Ca^++ Mg^++ free phosphate buffered saline (Dulbeco's modification A, abbreviated Dul A) at 4° C. before centrifuging again at 1500 rpm and 4° C. After again removing the supernatant, the cells were resuspended at a concentration of 3×10^7 cells/ml in ice cold hypotonic buffer and left for 30 minutes on ice. Nine volumes were then added of ice cold isotonic buffer, and the cells, now rendered permeable to exogenous NAD^+, were then used within the next hour for carrying out an assay. The permeablisation of the cells may be checked at this stage by adding duplicate aliquots of cells to an equal volume of trypan blue, leaving for 5 minutes and then counting on a haemocytometer. Those rendered permeable will take up the Trypan blue and appear coloured.

[1] = test system: L1210 murine leukaemia cells; assay: in vitro cytotoxicity assay (colony formation, L1210 cells, NU1064 with or without temozolomide); format: cell-based; settings: for relative plating efficiency, NU1064 with temozolomide: 24 hours, normalised to temozolomide alone = 100%
Procedure: Again using cultures of the murine leukaemia L1210 cell line, growth inhibition experiments were carried out to assess the cytostatic effects of the compounds and clonogenic survival assays were performed to assess cytotoxicity, especially in relation to use of the compounds in conjunction with DNA damaging cytotoxic agents such as cytotoxic antitumour drugs or gamma irradiation. […] After 1 week colonies of viable cells were stained with MTT (1 ml 0.5 mg/ml) and counted.

[2] = read-out: IC50 value (PARP inhibition)

Compound: NC(=O)c1cccc2[nH]c(C(F)(F)F)nc12 [NU1086, 2-trifluoromethylbenzimidazole-4-carboxamide]
- IC50 (PARP; [2]): 1600 nM

Compound: O=C(O)c1cccc2nc[nH]c12 [NU1067, benzimidazole-4-carboxylic acid]
- % Inhibition at 10 μM or IC50 value (result in words) (PARP; result in words in table): Inactive

Compound: Cn1nnc2c(C(N)=O)ncn2c1=O [temozolomide, reference compound]
- plating efficiency ([1]; 100 μM temozolomide alone, 24 hours (control 89%)): 32%

Compound: CGGAATTCCG: single strand oligonucleotide having the palindromic sequence CGGAATTCCG, activator of PARP (chemistry not given here) [reference compound]
- activation of PARP by oligonucleotide (in words) (PARP): potent activator of the enzyme

Compound: NC(=O)c1cccc2nc(-c3ccc(O)cc3)[nH]c12 [NU1085, 2-(4'-Hydroxyphenyl)-1-H-benzimidazole-4-carboxamide]
- IC50 (PARP; IC50 value (PARP inhibition)): 77 nM

Compound: NC(=O)c1ccccc1 [benzamide, reference compound]
- IC50 (PARP; [2]): 12400 ± 3100 nM

Compound: NC(=O)c1cccc(O)c1 [3-hydroxybenzamide, reference compound]
- IC50 (PARP; [2]): 8000 ± 3500 nM

Compound: NC(=O)c1cccc2[nH]cnc12 [NU1066, benzimidazole-4-carboxamide]
- IC50 (PARP; IC50 value (PARP inhibition)): 1260 nM and 1020 nM

The remaining compounds from weak to strong by IC50 (PARP; [2]), led by results:

- IC50 (PARP; [2]): 1090 ± 230 nM
Compound: Cc1nc2c(C(N)=O)cccc2[nH]1 [NU1064, 2-methylbenzimidazole-4-carboxamide]
- relative plating efficiency, NU1064 with temozolomide ([1]; 100 μM NU1064 + 100 μM temozolomide): 28%
- relative plating efficiency, NU1064 with temozolomide ([1]; 200 μM NU1064 + 100 μM temozolomide): 2%
- viability at 100 µM ([1]; Mus musculus, L1210, 100 μM NU1064, 24 hours, normalised to control = 100%, read-out: relative plating efficiency, NU1064 alone): 72%
- viability at 200 µM ([1]; Mus musculus, L1210, 200 μM NU1064, 24 hours, normalised to control = 100%, read-out: relative plating efficiency, NU1064 alone): 54%
- potentiation of temozolomide cytotoxicity (in words) ([1]; increasing concentrations of NU1064 + 100 μM temozolomide): very marked increase in temozolomide cytotoxicity

- IC50 (PARP; [2]): 270 nM
Compound: COc1ccc(-c2nc3c(C(N)=O)cccc3n2C(=O)c2ccccc2)cc1 [NU1101, 2-(4'-Methoxyphenyl)-1-benzoylbenzimidazole-4-carboxamide]

- IC50 (PARP; [2]): 130 nM
Compound: COc1cccc(-c2nc3c(C(N)=O)cccc3[nH]2)c1 [NU1098, 2-(3'-Methoxyphenyl)-1-H-benzimidazole-4-carboxamide]

- IC50 (PARP; [2]): ~100 nM
Compound: COc1ccc(-c2nc3c(C(N)=O)cccc3n2C)cc1 [NU1090, 2-(4'-Methoxyphenyl)-1-methylbenzimidazole-4-carboxamide]

- IC50 (PARP; [2]): 91 nM
Compound: NC(=O)c1cccc2nc(-c3ccc(N)cc3)[nH]c12 [NU1103, 2-(4'-aminophenyl)benzimidazole-4-carboxamide]

- IC50 (PARP; [2]): 76 nM
Compound: NC(=O)c1cccc2[nH]c(-c3cccc(C(F)(F)F)c3)nc12 [NU1093, 2-(3'-Trifluoromethylphenyl)-1-H-benzimidazole-4-carboxamide]

- IC50 (PARP; [2]): 59 nM
Compound: COc1ccc(-c2nc3c(C(N)=O)cccc3[nH]2)cc1 [NU1076, 2-(4'-methoxyphenyl)benzimidazole-4-carboxamide]

- PARP inhibitory activity (in words) (PARP): exceptionally high inhibitory activities
- IC50 (PARP; [2]): 33 nM
Compound: N#Cc1ccc(-c2nc3c(C(N)=O)cccc3[nH]2)cc1 [NU1092, 2-(4'-Cyanophenyl)-1-H-benzimidazole-4-carboxamide]

- PARP inhibitory activity (in words) (PARP): exceptionally high inhibitory activities
- IC50 (PARP; [2]): 22 nM
Compound: NC(=O)c1cccc2[nH]c(-c3ccc([N+](=O)[O-])cc3)nc12 [NU1091, 2-(4'-Nitrophenyl)-1-H-benzimidazole-4-carboxamide]
